# Measurements as given in EP1961762A1, “Inhibitors of protein phosphatase 1/GADD34, preparation and uses thereof” (Institut Gustave Roussy, priority 2007, dated 2008).
# Peptide text beside a SMILES is read from it. * marks the point of attachment. Cbz = O=C(OCc1ccccc1)*; CH2F = FC*
# Experiments:
# CRT and/or ERp57 = assay: Immunofluorescence staining of unfixed human tumour cell lines; type: cell-based; conditions: variety of human tumour cell lines
# CT26 tumour cells = assay: Anti-tumour vaccination with dying treated CT26 tumour cells, challenge with live tumour cells; type: in vivo, BALB/c mice; conditions: for immunogenic cell death: PP1/GADD34 inhibitor alone
# CRT = assay: Fluorescence detection of cell surface CRT on CT26 cells; type: cell-based, murine
# Protocol: CT26 cells were cultured at 37°C under 5% CO2 in RPMI 1640 medium supplemented with 10% FCS, penicillin, streptomycin, 1 mM pyruvate and 10 mM HEPES in the presence of doxorubicin (DX; 24 h, 25 µM), mitoxantrone (Mitox; 24h, 1 µM, Sigma), idarubicin (24h, 1 µM, Aventis, France), mitomycin C (30 µM, 48 h; Sanofi-Synthelabo, France), and/or zVAD-fmk (50 µM, 24 h; Bachem), tunicamycin (24h, 65 µM), thapsigargin (24h, 30µM), brefeldin A (24h, 50 µM, Sigma), etoposide (48h, 25µM, Tava classics), MG132 (48h, 10 µM), ALLN (48h, […]), betulinic acid (24h, 10 µM), Hoechst 33343 (24h, 0,2µM), camptothecine (24h, 15 µM), lactacystin (48h, 60 µM), BAY 11-8072 (24h, 30µM), staurosporine (24h, 1.5 µM), bafilomycin A1 (48h, 300 nM), arsenic trioxide (24h, 30µM), C2-ceramide (C2-C; 24h, 60 µM,), calyculin A (48h, 30nM), or tautomycin (48h, nM, Sigma) and/or salubrinal (48h, µM, Calbiochem).
# CT26 cells (on a glass slide or in 12-well plates) were first washed with FACS buffer (1× PBS, 5% fetus bovine serum, and 0.1% sodium azide) and then incubated with rabbit anti-mouse CRT antibody (1:100, Stressgen) in FACS buffer at 4 °C for 30 min. Cells reacted with anti-rabbit IgG (H+L) Alexa fluor 488-conjugates (1:500) in FACS buffer at 4 °C for 30 min. After washing three times with FACS buffer, surface CRT was detected by cytofluorometric analysis on a FACS Vantage. In some experiments, cells were fixed with 4% paraformaldehyde, counterstained with Hoechst (2µM; Sigma), followed by fluorescence microscopic assessment with a Leica IRE2 microscope equipped with a DC300F camera.
# [1] = test system: murine CT26 colon cancer cells; assay: Calreticulin exposure, immunofluorescence staining and cytofluorometric analysis; type: cell-based; conditions: 2 hours
# Protocol: CT26 cells were cultured for 24 hours in the presence of the indicated agents for 24hrs, as described in Materials and Methods, and then were stained with Annexin V-FITC and the vital dye DAPI. • Fig. 1B: Identification of immunogenic cell death inducers. CT26 cells cultured as in Fig.1A were injected into the left flank, followed by injection of life tumour cells in the right flank 8 days later. The percentage of tumour free mice was determined 120 days later as in Fig.1C. • Fig. 1C: Incidence of tumours after inoculation of dying cells. Day 1 was considered the day of inoculation of dying tumour cells, 1 week before challenge with […]. • Fig. 1S. Dissociation of CRT exposure and phosphatidyl serine exposure. • Fig. 1SA, Fig. 1SB: Kinetics of CRT exposure. […] Representative pictograms are shown in Fig.1SA and quantitative data are reported in Fig.1SB. • Fig. 1SC, Fig. 1SD: Kinetics of PS exposure and cell death. […] Note that the nuclei of untreated cells were visualized with Hoechst 33342 (blue), while those of doxorubicin-treated cells emit a red fluorescence (Fig.2D). […] The surface exposure of CRT was determined by immunoflurorescence cytometry while gating on viable (propidium iodine-negative) cells (inserts) and was correlated with the immunogenicity of cell death (as determined in Fig. 1). […]
# [2] = test system: human HCT116 colon cancer cell; assay: as above; type: cell-based; conditions: 2 hours
# HeLa, A549, HCT116 = assay: CRT exposure on human tumour cell lines; type: cell-based
# MCA205, B16F10, J558 = assay: CRT exposure on murine tumour cell lines; type: cell-based
# CT26 tumours [3] = assay: Intratumoural treatment of established CT26 tumours, immunocompetent mice; conditions: for therapeutic effect of single agent: single intratumoural injection, 14-day-old tumours
# Protocol: (§1) All animals were maintained in specific pathogen-free conditions and all experiments followed the FELASA guidelines. […] Tumours were evaluated weekly, using a caliper. In a series of experiments, BALB/c (wild type or nu/nu) carrying palpable CT26 tumours (implanted 14 days before for wild type or 7 days before for nu/nu mice by injection of 10^6 tumour cells) received a single intratumoural injection of 100 µM PBS containing the same concentration of anti-cancer agents and PP1/GADD34 inhibitors as those used in vitro, as well as rCRT (15 µg).
# CT26 tumours [4] = assay: Intratumoural treatment of established CT26 tumours, nu/nu mice; conditions: single intratumoural injection
# Protocol: as §1
# [5] = dying CT26 cells treated with the agent injected into one flank, live tumour cells into the opposite flank 8 days later
compound,measurement,setting,value
CC(=O)[C@]1(O)Cc2c(O)c3c(c(O)c2[C@@H](O[C@H]2C[C@H](N)[C@H](O)[C@H](C)O2)C1)C(=O)c1ccccc1C3=O [idarubicin],exposure of CRT and/or ERp57 on the cell surface,CRT and/or ERp57,Very similar results
same,immunogenic apoptosis / immunogenic cell death (protection against tumour growth),CT26 tumour cells; [5],elicited immunogenic cell death
CCOc1ccc(-c2nc3ccc(-c4nc5ccc(N6CCN(C)CC6)cc5[nH]4)cc3[nH]2)cc1 [Hoechst 33342],immunogenic apoptosis / immunogenic cell death (protection against tumour growth),CT26 tumour cells; [5],failed to induce immunogenic apoptosis
tunicamycin,immunogenic apoptosis / immunogenic cell death (protection against tumour growth),CT26 tumour cells; [5],failed to induce immunogenic apoptosis
C/C=C(/C)C(=O)O[C@H]1C(C)=C2[C@H]([C@@H]1OC(=O)CCCCCCC)[C@@](C)(OC(C)=O)C[C@H](OC(=O)CCC)[C@@]1(O)[C@H]2OC(=O)[C@@]1(C)O [thapsigargin],immunogenic apoptosis / immunogenic cell death (protection against tumour growth),CT26 tumour cells; [5],failed to induce immunogenic apoptosis
C2-ceramide [C2 ceramide],immunogenic apoptosis / immunogenic cell death (protection against tumour growth),CT26 tumour cells; [5],failed to induce immunogenic apoptosis
"C[C@H]1CCC/C=C/[C@@H]2C[C@H](O)C[C@H]2[C@H](O)/C=C/C(=O)O1 [brefeldin, brefeldin A]",immunogenic apoptosis / immunogenic cell death (protection against tumour growth),CT26 tumour cells; [5],failed to induce immunogenic apoptosis
C/C1=C/C(=O)O[C@@H]2C[C@@H](CC[C@H](C)/C=C\C=C\CC1)O[C@@](O)([C@@H]1CSC(=O)N1)C2 [latrunculin A],effect on CRT exposure induced by anthracyclins and PP1/GADD34 inhibitors,CRT; pre-incubation for 1 h with the inhibitor,abolished
VKKKKIKREIKI-Ikaravafsekv [mutant control peptide],exposure of calreticulin,[1],did not induce calreticulin exposure
same,exposure of calreticulin,[2],did not induce calreticulin exposure
CC[C@@]1(O)C(=O)OCc2c1cc1n(c2=O)Cc2cc3ccccc3nc2-1 [camptothecin],immunogenic apoptosis / immunogenic cell death (protection against tumour growth),CT26 tumour cells; [5],failed to induce immunogenic apoptosis
COc1cccc2c1C(=O)c1c(O)c3c(c(O)c1C2=O)C[C@@](O)(C(C)=O)C[C@@H]3O[C@H]1C[C@H](N)[C@H](O)[C@H](C)O1 [daunorubicin],exposure of CRT and/or ERp57 on the cell surface,CRT and/or ERp57,Very similar results
O=C(/C=C/c1ccccc1)NC(NC(=S)Nc1cccc2cccnc12)C(Cl)(Cl)Cl (stereo not shown) [salubrinal],CRT exposure,"HeLa, A549, HCT116",induced CRT exposure
same,CRT exposure,"MCA205, B16F10, J558",induced CRT exposure
same,immunogenic cell death,CT26 tumour cells,not sufficient to induce immunogenic cell death
same,immunogenic potential of cells succumbing to etoposide,"CT26 tumour cells; in combination with etoposide (mitomycin C not shown), abrogated by knocking down CRT",greatly enhanced
same,tumour response,"CT26 tumours [3]; combined with etoposide or mitomycin C, intratumoural",stable disease or complete tumour regression
same,therapeutic effect of single agent,CT26 tumours [3],no major therapeutic effect
same,therapeutic effect of single agent,CT26 tumours [4],no major therapeutic effect
same,CRT exposure,CRT; agent alone,efficiently induced
same,CRT exposure,CRT; in combination with etoposide,greatly enhanced
COC(=O)C[C@H](NC(=O)[C@H](C)NC(=O)[C@@H](NC(=O)OCc1ccccc1)C(C)C)C(=O)CF [Z-VAD-fmk] (Cbz-Val-Ala-Asp(OMe)-CH2F),immunogenicity of doxorubicin-elicited cell death,CT26 tumour cells; Z-VAD-fmk combined with doxorubicin,reduces the immunogenicity
arsenic trioxide [arsenite],immunogenic apoptosis / immunogenic cell death (protection against tumour growth),"CT26 tumour cells; mouse, in vivo",failed to induce immunogenic apoptosis
CO[C@@]12[C@H](COC(N)=O)C3=C(C(=O)C(C)=C(N)C3=O)N1C[C@@H]1N[C@@H]12 [mitomycin C],immunogenic apoptosis / immunogenic cell death (protection against tumour growth),"CT26 tumour cells; mouse, in vivo",failed to induce immunogenic apoptosis
same,therapeutic effect of single agent,CT26 tumours [3],no major therapeutic effect
same,therapeutic effect of single agent,CT26 tumours [4],no major therapeutic effect
COC[C@@H]([C@H](O)[C@H](O)C(=O)NCC[C@H](C)c1nc(/C=C/C[C@@H]2O[C@]3(C[C@@H](O)[C@@H]2C)O[C@H]([C@H](C[C@H](O)[C@H](C)[C@H](O)[C@H](C)/C=C(C)/C(C)=C/C=C/C(C)=C\C#N)OC)[C@H](OP(=O)(O)O)C3(C)C)co1)N(C)C [calyculin A],immunogenic cell death,CT26 tumour cells,not sufficient to induce immunogenic cell death
same,immunogenic potential of cells succumbing to etoposide,"CT26 tumour cells; mouse, in vivo",greatly enhanced
same,CRT exposure,CRT; agent alone,efficiently induced
same,CRT exposure,CRT; in combination with etoposide,greatly enhanced
COc1cc([C@@H]2c3cc4c(cc3[C@@H](O[C@@H]3O[C@@H]5CO[C@@H](C)O[C@H]5[C@H](O)[C@H]3O)[C@H]3COC(=O)[C@H]23)OCO4)cc(OC)c1O [etoposide],immunogenic apoptosis / immunogenic cell death (protection against tumour growth),CT26 tumour cells; [5],failed to induce immunogenic apoptosis
same,immunogenicity of etoposide-treated cells,CT26 tumour cells; sham-coated cells,poorly immunogenic
same,therapeutic effect of single agent,CT26 tumours [3],no major therapeutic effect
same,therapeutic effect of single agent,CT26 tumours [4],no major therapeutic effect
